Results as given in patent US20110028509A1, “Sulfonamides” (MERCK SERONO SA, priority 2008, published 2011).

Tests used:
Assay type in all cases: cell-based
[1] = target: T1, CXCR3 (Homo sapiens, UniProt P49682); test: Chemotaxis assay IP10, L1.2 recombinant cells expressing hCXCR3; conditions: L1.2 hCXCR3 cells, IP10 around 0.3 nM, 4 hours
T1 sequence (P49682 1-368): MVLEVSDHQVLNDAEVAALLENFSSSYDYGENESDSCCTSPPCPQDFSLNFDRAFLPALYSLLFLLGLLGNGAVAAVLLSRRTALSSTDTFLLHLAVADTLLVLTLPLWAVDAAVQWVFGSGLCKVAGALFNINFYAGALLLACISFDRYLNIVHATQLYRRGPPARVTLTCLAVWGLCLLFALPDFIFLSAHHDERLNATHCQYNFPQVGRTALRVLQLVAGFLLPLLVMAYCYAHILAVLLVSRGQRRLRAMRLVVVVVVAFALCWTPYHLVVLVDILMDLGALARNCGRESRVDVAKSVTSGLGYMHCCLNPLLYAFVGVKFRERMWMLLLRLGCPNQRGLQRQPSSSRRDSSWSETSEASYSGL
Procedure: Human CXCR3 cDNA was amplified by PCR from a human cells cDNA library (Clontech) and subcloned into pcDNA3.1 (Invitrogen). Murine pre-B L1.2 cells were transfected with hCXCR3-pcDNA3.1 and were grown at 37° C., 5% CO2 in RPMI 1640 medium (Invitrogen, USA) supplemented with 5% heat inactivated fetal calf serum (Cancerra, Australia), 2 mM glutamine (Invitrogen), 50 units ml−1 penicillin, 50 μml−1 streptomycin. Stable transfectant clonal populations were selected using 800 μg/ml geneticin.
L1.2 recombinant cells expressing the receptor hCXCR3 were maintained in culture in RPMI 1640 (invitrogen), 5% Foetal Bovine Serum (invitrogen), 2 mM glutamine(invitrogen), 50 u/ml penicillin/streptomycin (invitrogen), at 37° C.-5% CO2—in an H2O saturated incubator. In order to stimulate the expression of the receptor, cells were incubated overnight with 5 mM butyric acid (Sigma)
This mix of cells/compounds was then incubated at 37° C.-5% CO2—in an H2O saturated incubator during 30 minutes. Cells were then dispensed as a drop on each corresponding wells of the chemotaxis system. Cell migration was then induced at 37° C.-5% CO2—in an H2O incubator during 4 hours. Filters were then removed and cells that had migrated were transferred in a black plate (Costar). The plates were stored overnight at −80° C. Cell migration ratio was calculated using the cyquant dye (Molecular Probes-C7026).

[2] = target: T1, CXCR3; test: CXCR3 Ca2+ mobilization (FLIPR), stable hCXCR3-CHO cell line, I-TAC stimulated; design: host or cells: CHO cells stably expressing hCXCR3; conditions: hCXCR3-CHO cells, I-TAC 100 nM stimulated Ca2+ response; read-out: Ca-ITAC
Summary of the method: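 Ca2+ mobilization triggered by I-TAC (100 nM) measured by FLIPR in a stable hCXCR3-CHO line. Dye-loaded (60 min) cells preincubated with compounds 20 minutes at room temperature; antagonism given relative to the compound-free I-TAC signal set at 100%.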

[3] = target: T1, CXCR3; test: Chemotaxis assay ITAC (CXCL11), L1.2-CXCR3 cells; design: expressed in transfected cells; conditions: 1 nM CXCL11 (I-TAC), 4 hours
Summary of the method: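 Murine pre-B L1.2 cells stably expressing human CXCR3, pretreated 24 h with 5 mM butyric acid, preincubated with compound 30 min at 37 °C in 1% DMSO. Migration toward 1 nM CXCL11 (also with compound) through 8 μm filters for 4 h at 37 °C; migrated cells counted with CyQuant GR dye.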

Row | IC50 [1] | IC50 [2] | IC50 [3] | Compound
1 | 1.32 µM | 1700 nM | – | CS(=O)(=O)CCCS(=O)(=O)NC(=O)c1ccc(CN(Cc2ccccn2)S(=O)(=O)c2ccc(Cl)cc2)cc1 [Example 53, N-(1-methylsulfonyl-3-propylsulfonyl)-4-{[[(4-chlorophenyl)sulfonyl](pyridin-2-yl-methyl)amino]methyl}benzamide]
2 | 0.07 µM | 170 nM | 170 nM | O=C(Nc1ccc(CN(Cc2ccccn2)S(=O)(=O)c2ccc(Cl)cc2)cc1)C1(c2ccccc2)CC1 [Example 162, 1-Phenyl-cyclopropanecarboxylic acid (4-{[(4-chloro-benzenesulfonyl)-pyridin-2-ylmethyl-amino]-methyl}-phenyl)-amide]
3 | 0.01 µM | 20 nM | 20 nM | N#Cc1ccc(S(=O)(=O)N(Cc2ccc(C(=O)NCC(O)c3ccccc3)cc2)Cc2ccccn2)cc1 (centres unmarked) [Example 102]
4 | 0.339 µM | 131 nM | – | O=C(NS(=O)(=O)c1cccc(F)c1)c1ccc(CN(Cc2ccccn2)S(=O)(=O)c2ccc(Cl)cc2)cc1 [Example 51, N-(3-fluorobenzenesulfonyl)-4-{[[(4-chlorophenyl)sulfonyl](pyridin-2-yl-methyl)amino]methyl}benzamide]
5 | 0.01 µM | 50 nM | – | CCOc1ccc(S(=O)(=O)N(Cc2ccc(C(=O)N[C@H]3[C@@H]4CN(C(=O)OC(C)(C)C)C[C@@H]43)cc2)Cc2ccccn2)cc1 [Example 89, rac-6-(4-{[(4-Ethoxy-benzenesulfonyl)-pyridin-2-ylmethyl-amino]-methyl}-benzoylamino)-3-aza-bicyclo[3.1.0]hexane-3-carboxylic acid tert-butyl ester]
6 | 0.01 µM | 10 nM | 30 nM | CCOc1ccc(S(=O)(=O)N(Cc2ccc(C(=O)NC3(c4ccccc4)CC3)cc2)Cc2ccccn2)cc1 [Example 88]
7 | 0.06 µM | 20 nM | – | N#Cc1ccc(S(=O)(=O)N(Cc2ccc(NC(=O)Cc3cccc(Cl)c3)cc2)Cc2ccccn2)cc1 [Example 161]
8 | 3.83 µM | 5600 nM | – | COCCCS(=O)(=O)NC(=O)c1ccc(CN(Cc2ccccn2)S(=O)(=O)c2ccc(Cl)cc2)cc1 [Example 54, N-(3-methoxy-propane-1-sulfonyl)-4-{[[(4-chlorophenyl)sulfonyl](pyridin-2-yl-methyl)amino]methyl}benzamide]
9 | 0.01 µM | 10 nM | – | CC(C)(C)OC(=O)N1C[C@@H]2[C@H](C1)[C@H]2NC(=O)c1ccc(CN(Cc2ccccn2)S(=O)(=O)c2ccc(C#N)cc2)cc1 [Example 96]
10 | 0.05 µM | 70 nM | – | N#Cc1ccc(S(=O)(=O)N(Cc2ccc(C(=O)NCCc3cccc(Cl)c3)cc2)Cc2ccccn2)cc1 [Example 97]
11 | 1.13 µM | 3040 nM | 3150 nM | O=C(O)c1ccc(CN(Cc2ccccn2)S(=O)(=O)c2ccc(Cl)cc2)cc1F [Example 64, 4-{[(4-Chloro-benzenesulfonyl)-pyridin-2-ylmethyl-amino]-methyl}-2-fluoro-benzoic acid]
12 | 0.01 µM | 20 nM | 20 nM | CCOc1ccc(S(=O)(=O)N(Cc2ccc(C(=O)NCC(O)c3ccccc3)cc2)Cc2ccccn2)cc1 (centres unmarked) [Example 84]

More lines, now with the values behind:

Row | Compound | IC50 [1] | IC50 [2] | IC50 [3]
13 | CCOc1ccc(S(=O)(=O)N(Cc2ccc(-c3nnn[nH]3)c(F)c2)Cc2ccccn2)cc1 [Example 80] | 0.158 µM | 55 nM | 909 nM
14 | N#Cc1ccc(S(=O)(=O)N(Cc2ccc(-c3nnn[nH]3)cc2)Cc2ccccc2F)cc1 [Example 83, 4-cyano-N-(2-fluorobenzyl)-N-[4-(2H-tetrazol-5-yl)benzyl]benzenesulfonamide] | 0.236 µM | 10 nM | 1040 nM
15 | O=S(=O)(c1ccc(Cl)cc1)N(Cc1ccccn1)Cc1ccc(-c2nnn[nH]2)cc1F [Example 57, 4-chloro-N-[2-fluoro-4-(1H-tetrazol-5-yl)benzyl]-N-(pyridin-2 ylmethyl)benzene sulfonamide] | 0.44 µM | 5000 nM | 1780 nM
16 | N#Cc1ccc(S(=O)(=O)N(Cc2ccc(-c3nnn[nH]3)cc2)Cc2ccccn2)cc1 [Example 47, 4-cyano-N-(pyridin-2-ylmethyl)-N-[4-(2H-tetrazol-5-yl)benzyl]benzenesulfonamide] | 0.233 µM | 1160 nM | –
17 | N#Cc1ccc(S(=O)(=O)N(Cc2ccc(-c3nnn[nH]3)c(F)c2)Cc2ccccc2F)cc1 [Example 81, 4-cyano-N-(2-fluorobenzyl)-N-[3-fluoro-4-(2H-tetrazol-5-yl)benzyl]benzene sulfonamide] | 0.193 µM | 79 nM | 565 nM
18 | O=S(=O)(c1ccc(Cl)cc1)N(Cc1ccc(-c2nnn[nH]2)c(F)c1)Cc1ccccn1 [Example 56, 4-chloro-N-[3-fluoro-4-(1H-tetrazol-5-yl)benzyl]-N-(pyridin-2 ylmethyl)benzene sulfonamide] | 1.16 µM | 5300 nM | –
19 | CCOc1ccc(S(=O)(=O)N(Cc2ccc(C(=O)NC3(c4ccccc4)CC3)cc2)Cc2cccnc2)cc1 [Example 93] | 0.04 µM | 30 nM | –
20 | O=S(=O)(c1ccc(Cl)cc1)N(Cc1ccc(-c2nnn[nH]2)cc1)Cc1ccc(F)cc1F [Example 60, 4-chloro-N-(2,4-difluorobenzyl)-N-[4-(2H-tetrazol-5-yl)benzyl]benzenesulfonamide] | 0.681 µM | 1450 nM | –
21 | O=C(NCC1CC1)c1ccc(CN(Cc2ccccc2)S(=O)(=O)c2ccc(Cl)nc2)cc1 [Example 37, 4-{[benzyl({[2-chloropyridine)l]sulfonyl)amino]methyl}-N(cyclopropylmethyl)benzamide] | 0.328 µM | 3350 nM | –
22 | CC(C)(C)c1nc(CN(Cc2ccc(-c3nnn[nH]3)cc2)S(=O)(=O)c2ccc(Cl)cc2)no1 [Example 69, 4-chloro-N-(5-tert-butyl-1,2,4-oxadiazol-3-ylmethyl)-N-[4-(2H-tetrazol-5yl)benzyl]benzene sulfonamide] | 0.254 µM | 56 nM | 560 nM
23 | O=S(=O)(c1ccc(Cl)cc1)N(Cc1ccc(-c2nnn[nH]2)cc1)Cc1c(F)cccc1F [Example 62, 4-chloro-N-(2,6-difluorobenzyl)-N-[4-(2H-tetrazol-5-yl)benzyl]benzene sulfonamide] | 0.183 µM | 44 nM | 212 nM
24 | N#Cc1ccc(S(=O)(=O)N(Cc2ccc(NC(=O)C3(c4ccccc4)CC3)cc2)Cc2ccccn2)cc1 [Example 163] | 0.02 µM | 20 nM | 120 nM
25 | O=S(=O)(c1ccc(Cl)cc1F)N(Cc1ccc(-c2nnn[nH]2)cc1)Cc1ccccn1 [Example 77] | 0.409 µM | 500 nM | 409 nM
26 | O=C(O)c1ccc(CN(Cc2ccccc2F)S(=O)(=O)c2ccc(Cl)cc2)cc1F [Example 65, 4-{[(4-Chloro-benzenesulfonyl)-(2-fluoro-benzyl)-amino]-methyl}-2-fluorobenzoic acid] | 0.513 µM | 1010 nM | 2300 nM
27 | N#Cc1ccc(S(=O)(=O)N(Cc2ccc(C(=O)NC3(c4cccc(C#N)c4)CC3)cc2)Cc2ccccn2)cc1 [Example 101] | 0.19 µM | 60 nM | –
